# From patent US7202085B2, “Control of gene expression in eukaryotic cells” (Calgene LLC, priority 1999, dated 2007)
# “And” between values parts separate entries of the source, which are not always exact repeats. Identical values can stand only once. Like-named read-outs stand apart in the source and are kept apart here.
# Experiments:
# [1] = test system: VP16-TraR; assay: Transient GUS reporter assay in carrot protoplasts with VP16-TraR effector and tra box reporter; assay type: cell-based, Agrobacterium tumefaciens; conditions: Table 8: TraA8(4X) +TraR
# Excerpt: Carrot protoplasts were transfected with the TraA8 (4×)-GUS reporter construct with the 35S-VP16-TraR activator gene and tested for GUS induction by application of wild type AHL and the various AHL analogs described in Example 8.
# [2] = test system: tra box-GUS reporter
# Protocol: Plasmids for transfection were isolated and purified using Megaprep plasmid DNA isolation kit (Qiagen). Carrot protoplasts for transfections were prepared from carrot cell suspension culture and transfected with purified DNA as described (Ulmasov et al., Plant Cell 7:1611–1623, 1995). Briefly, 10 μg of the reporter plasmid and 5 μg of the effector plasmid were incubated with 10^6 protoplasts for five minutes at the room temperature in the presence of polyethylene glycol-calcium solution. After diluting approximately 10-fold with the culture medium, the protoplasts were incubated in the dark for 36 hours either in the presence or absence of the inducer 3-oxohexanoyl-homoserine lactone (OHHL, racemic mixture of the L- and D-isomers, purchased from Sigma Chemical Co., St Louis, Mo.). After incubation, protoplasts were collected by low-speed centrifugation, lysed and the level of GUS activity was measured using fluorometric GUS assay (Jefferson et al., EMBO J. 6:3901–3907, 1987).
# Ten μg of the reporter plasmid (pMON53031), and indicated amount of the 35S effector plasmid per reaction was used for transfection in triplicate. […] The “− inducer” and “+ inducer” columns are averages of the GUS activities.
# These constructs were tested for background GUS activity and TraR responsiveness in carrot protoplasts.
# [3] = Table 5 lane 1: tra box (6X), cl.7 alone (35S-CAT), 12.5 μM C8-AHL
# [4] = Table 5 lane 3: traA1(3X), cl.35 alone (35S-CAT), 12.5 μM C8-AHL
# [5] = Table 5 lane 5: traA2(3X), cl.43 alone (35S-CAT), 12.5 μM C8-AHL
# [6] = Table 5 lane 7: traA3(3X), cl.4 alone (35S-CAT), 12.5 μM C8-AHL
# [7] = Table 5 lane 9: traA4(3X), cl.23 alone (35S-CAT), 12.5 μM C8-AHL
# [8] = Table 5 lane 11: traA5(3X), cl.2 alone (35S-CAT), 12.5 μM C8-AHL
# [9] = Table 5 lane 13: traA6(3X), cl.21 alone (35S-CAT), 12.5 μM C8-AHL
# [10] = Table 5 lane 15: traA7(3X), cl.15 alone (35S-CAT), 12.5 μM C8-AHL
# [11] = Table 5 lane 17: traA8(3X), cl.4 alone (35S-CAT), 12.5 μM C8-AHL
# [12] = Table 5 lane 19: traA9(3X), cl.8 alone (35S-CAT), 12.5 μM C8-AHL
# [13] = Table 5 lane 21: min-46GUS, 12.5 μM C8-AHL
# [14] = Table 6 lane 1: Tra box(3X), cl.5 + CAT, 12.5 μM C8-AHL
# [15] = Table 6 lane 3: TraA1(3X), cl.35 + CAT, 12.5 μM C8-AHL
# [16] = Table 6 lane 5: TraA2(3X), cl.43 + CAT, 12.5 μM C8-AHL
# [17] = Table 6 lane 7: TraA3(3X), cl.4 + CAT, 12.5 μM C8-AHL
# [18] = Table 6 lane 9: TraA4(3X), cl.23 + CAT, 12.5 μM C8-AHL
# [19] = Table 6 lane 11: TraA5(3X), cl.2 + CAT, 12.5 μM C8-AHL
# [20] = Table 6 lane 15: TraA7(3X), cl.15 + CAT, 12.5 μM C8-AHL
# [21] = Table 6 lane 17: TraA8(3X), cl.4 + CAT, 12.5 μM C8-AHL
# [22] = Table 6 lane 19: TraA9(3X), cl.8 + CAT, 12.5 μM C8-AHL
# [23] = Table 6 lane 21: TraA10(3X), cl.17 + CAT, 12.5 μM C8-AHL
# [24] = Table 6 lane 23: TraA-1(3X), cl.14 + CAT, 12.5 μM C8-AHL
# [25] = Table 6 lane 25: min35S-46-GUS, 12.5 μM C8-AHL
# [26] = Table 7 lane 1: S2-46GUS, 12.5 μM C8-AHL
# [27] = Table 7 lane 2: TraA8(4X), cl.16 + CAT, 12.5 μM C8-AHL
smiles,measurement,setting,value
"CCCCCC(=O)CC(=O)N[C@H]1CCOC1=O [C8-HSL, 3-oxooctanoyl-L-homoserine lactone]","1, 2, 3 (replicate GUS activities at the lower concentration)",[1]; 5 μM,2820.7 and 3124.7 and 3110.7
same,"4, 5, 6 (replicate GUS activities at the higher concentration)",[1]; 12.5 μM,4386.9 and 4031.2 and 4010.3
same,"1, 2, 3 (replicate GUS activities at the lower concentration)",[1]; 25 μM,8183.1 and 7890.1 and 6855.5
same,"4, 5, 6 (replicate GUS activities at the higher concentration)",[1]; 75 μM,8036.8 and 7647.1 and 8243.2
same,+inducer (average GUS activity),"[2]; Table 4: min35S-GUS, 25 [i M OOHL]",6.1
same,+inducer (average GUS activity),"[2]; Table 4: pMON53031 alone, 25 [i M OOHL]",265
same,"4, 5, 6 (replicate GUS activities, +inducer)",[2]; [3],569.8 and 647.3 and 643.6
same,+inducer (average GUS activity),[2]; [3],620.2
same,"4, 5, 6 (replicate GUS activities, +inducer)",[2]; [4],110.8 and 118.5 and 145.2
same,+inducer (average GUS activity),[2]; [4],124.8
same,"4, 5, 6 (replicate GUS activities, +inducer)",[2]; [5],240.6 and 221.1 and 229.7
same,+inducer (average GUS activity),[2]; [5],230.5
same,"4, 5, 6 (replicate GUS activities, +inducer)",[2]; [6],89.3 and 94.4 and 103.2
same,+inducer (average GUS activity),[2]; [6],95.6
same,"4, 5, 6 (replicate GUS activities, +inducer)",[2]; [7],177.7 and 196.0 and 195.0
same,+inducer (average GUS activity),[2]; [7],189.6
same,"4, 5, 6 (replicate GUS activities, +inducer)",[2]; [8],20.6 and 16.2 and 13.1
same,+inducer (average GUS activity),[2]; [8],16.6
same,"4, 5, 6 (replicate GUS activities, +inducer)",[2]; [9],73.6 and 64.2 and 76.1
same,+inducer (average GUS activity),[2]; [9],71.3
same,"4, 5, 6 (replicate GUS activities, +inducer)",[2]; [10],215.1 and 200.0 and 238.6
same,+inducer (average GUS activity),[2]; [10],217.9
same,"4, 5, 6 (replicate GUS activities, +inducer)",[2]; [11],36.3 and 43.3 and 39.8
same,+inducer (average GUS activity),[2]; [11],39.8
same,"4, 5, 6 (replicate GUS activities, +inducer)",[2]; [12],32.4 and 35.6 and 36.2
same,+inducer (average GUS activity),[2]; [12],34.7
same,"4, 5, 6 (replicate GUS activities, +inducer)",[2]; [13],145.4 and 124.2 and 116.0
same,+inducer (average GUS activity),[2]; [13],128.5
same,"4, 5, 6 (replicate GUS activities, +inducer)",[2]; [14],264.6 and 251.9 and 230.9
same,+inducer (average GUS activity),[2]; [14],249.1
same,"4, 5, 6 (replicate GUS activities, +inducer)",[2]; [15],70.7 and 54.2 and 42.8
same,+inducer (average GUS activity),[2]; [15],55.9
same,"4, 5, 6 (replicate GUS activities, +inducer)",[2]; [16],125.2 and 103.0 and 110.2
same,+inducer (average GUS activity),[2]; [16],112.8
same,"4, 5, 6 (replicate GUS activities, +inducer)",[2]; [17],59.2 and 62.8 and 46.4
same,+inducer (average GUS activity),[2]; [17],56.1
same,"4, 5, 6 (replicate GUS activities, +inducer)",[2]; [18],87.9 and 86.4 and 85.9
same,+inducer (average GUS activity),[2]; [18],86.7
same,"4, 5, 6 (replicate GUS activities, +inducer)",[2]; [19],72.5 and 68.2 and 90.9
same,+inducer (average GUS activity),[2]; [19],77.2
same,+inducer (average GUS activity),"[2]; Table 6 lane 13: TraA6(3X), cl.21 + CAT, 12.5 μM C8-AHL",3.9
same,"4, 5, 6 (replicate GUS activities, +inducer)",[2]; [20],241.3 and 197.1 and 268.5
same,+inducer (average GUS activity),[2]; [20],235.6
same,"4, 5, 6 (replicate GUS activities, +inducer)",[2]; [21],121.2 and 148.8 and 115.9
same,+inducer (average GUS activity),[2]; [21],128.7
same,"4, 5, 6 (replicate GUS activities, +inducer)",[2]; [22],97.4 and 96.7 and 89.6
same,+inducer (average GUS activity),[2]; [22],94.6
same,"4, 5, 6 (replicate GUS activities, +inducer)",[2]; [23],47.1 and 44.2 and 44.1
same,+inducer (average GUS activity),[2]; [23],45.1
same,"4, 5, 6 (replicate GUS activities, +inducer)",[2]; [24],19.7 and 23.6 and 17.0
same,+inducer (average GUS activity),[2]; [24],20.1
same,"4, 5, 6 (replicate GUS activities, +inducer)",[2]; [25],39.6 and 32.1 and 44.5
same,+inducer (average GUS activity),[2]; [25],38.7
same,"4, 5, 6 (replicate GUS activities, +inducer)",[2]; [26],27.2 and 22.7 and 17.4
same,+inducer (average GUS activity),[2]; [26],22.4
same,"4, 5, 6 (replicate GUS activities, +inducer)",[2]; [27],20.3 and 25.1 and 18.7
same,+inducer (average GUS activity),[2]; [27],21.3
